Source: patent US20050124493A1, “Herbicidal composition” (priority 2002, published 2005)

System: wheat and barley
Test: Post-emergence greenhouse test of herbicide mixture with safener (Example B1)
Assay type: in vivo
Conditions: greenhouse pots, mixture of MCPA, bromoxynil and herbicide H1 or H2, alone vs. with safener (admixture or seed dressing), evaluated after 9, 10, 20 and 24 days, 100% action=plant completely dead, 0%=no phytotoxic action
Text: Examples B1: Post-emergence applications of mixtures of MCPA, bromoxynil and the herbicide of formula I wherein R1 and R3 are —C2H5; R4 and R5 together form a group —CR14(R15)—CR16(R17)—O—CR18(R19)—CR20(R21)— wherein R14, R15 R16, R17, R18, R19, R20 and R21 are hydrogen; and G is either hydrogen (=herbicide H1) or (CH3)3CC(O)— (=herbicide H2), with the safener of formula II wherein Rs1 is chlorine and Rs2 is 1-methylhexyl, in wheat and barley, and together with 3 different weeds.
The test plants are grown to a post-application stage in pots under greenhouse conditions. A standard soil is used as cultivation substrate. At a post-emergence stage, the herbicides, both on their own and in admixture with the safener, are applied to the test plants or to cultivated plants seed-dressed with safener. The application is carried out using an emulsion (prepared from a 25% emulsifiable concentrate (Example F1, b)) of the test substances using 500 litres of water per ha. The rates of application depend on the optimum concentrations ascertained under field conditions and greenhouse conditions. The tests are evaluated after 9, 10, 20 and 24 days (100% action=plant is completely dead, 0% action=no phytotoxic action).

Compound: CCCCCC(C)OC(=O)COc1ccc(Cl)c2cccnc12 (stereo not shown) [safener]
- damage caused to the cultivated plants by the herbicide mixture (phytotoxic action): significantly reduce the damage
